Data published in patent publication US4571403A, “Antianginal medicated compound” (Institut Organicheskoi Khimii Imeni N.D. Zelinskogo …, priority 1984, dated 1986).
“Also recorded” adds a separate entry of the source.

Experiments:
blood flow in aorta = assay: volumetric blood flow in the ascending aortic arch, anesthetized cats and dogs; assay type: in vivo; settings: 200-500 mg/kg intravenously
Text: (§1) In experiments on cats and dogs under the general anesthesia conditions the volumetric flow rate of blood flow in the ascending part of the aortic arch has been recorded by the electromagnetic method using an electromagnetic blood flow meter and vessel sensors of appropriate size. On the basis of analysis of the phase curve of the blood flow, the main characteristics of heart activity and hemodynamics have been calculated. […] The averaged data of analysis of phase curves of the blood flow in cat's aorta under general anesthesia conditions (8 tests) are given in the Table hereinbelow.

[1] = system: systemic arterial pressure; assay: effect on arterial pressure in cats and dogs; assay type: in vivo
Method: The effect of the preparation on the arterial pressure has been also studied. […] The average value of the maximum drop of pressure during the first 10 minutes after the administration is 8-10% of the initial level. In doses of 500 mg/kg the preparation causes hypotensive reaction with the intensity of 15-18% of the initial level at the duration of the effect of 20-30 minutes.

[2] = system: vessels of heart, kidney and limbs; assay: resistogram of vessels of heart, kidney and limbs; assay type: in vivo
Text: To find out the participance of the vascular factor in redistribution of regional blood flow, resistogram of vessels of heart, kidney and limbs has been recorded. […] The effect of the preparation on the heart activity and basic characteristics of hemodynamics has been also studied.

coronary blood flow = assay: rate of coronary blood flow and oxygen absorption by myocardium in anesthetized cats; assay type: in vivo
Method: At the same time, the content of oxyhemoglobin in the coronary venous blood is determined by the photometrical method and the absorption of oxygen by myocardium is calculated on the basis of the arterio-venous difference value.
The effect duration varies within the range of from 5 to 10 minutes. With increasing the preparation dose up to 500 mg/kg, the intensity and duration of the effect are increased reaching respectively 108±12% and 30-40 minutes.
Calculation of the amount of the heart-absorbed oxygen points to it explicit increase (29±2.3%).

acute toxicity on rats = settings: rat, in vivo
Text: (§2) The acute toxicity of the preparation according to the present invention has been studied on mice and rats.

solubility in water = assay type: physicochemical; settings: white crystalline powder
rats = assay: chronical toxicity in rats, intraperitoneal; assay type: in vivo
[3] = system: sympathetic nerves of heart and kidney; assay: tonic and reflectorial bioelectric activity in sympathetic nerves of heart and kidney; assay type: in vivo; settings: cats
Text: In experiments on anesthetized (urethane+chloralose) and immobilized (succinylcholine bromide) cats (14 tests) there has been studied the effect of the preparation in various doses on the tonic and reflectorial bioelectric activity in sympathetic nerves of heart and kidney. Somatosympathetic reflexes are caused by electric irritation of afferent A- and C- fibers of the tibial nerve.

[4] = system: activity of heart and hemodynamics; assay: phase curve analysis of aortic blood flow: activity of heart and hemodynamics in anesthetized cats; assay type: in vivo; design: Maximum blood flow: unit not given here; settings: for Time of systolic ejaculation: background 0.14 ± 0.008; for Time of diastolic relaxation: background 0.22 ± 0.01; for Minute work: background 0.88 ± 0.09; for Systolic (beat) volume: background 1.93 ± 0.12; for Maximum blood flow: background 19.7 ± 2.1; for Maximum linear speed: background 35 ± 1.9; for Average arterial pressure: background 148 ± 7.6; for Pulse frequency: background 181 ± 5; for Minute volume: background 372 ± 26
Text: as §1
Effect of the preparation (250 mg/kg intravenously) on the
activity of heart and basic characteristics of hemodynamics

mice = assay: acute toxicity on mice; assay type: in vivo
Text: as §2

acute toxicity on mice = assay type: in vivo; settings: mouse, in vivo
Text: as §2

cardio-vascular effects = assay: overall cardiovascular effects / conclusions of the tests; settings: in vivo
Text: The results of the above-described tests allow the following conclusions characterizing the properties of the medicated compound according to the present invention.

[5] = system: ischemic zone of myocardium; assay: model of acute attack of stenocardia (Sekeresh's model) in anesthetized dogs; assay type: in vivo
Text: The effect of the preparation on the functional state of the ischemic center has been studied in experiments on dogs under the conditions of general anesthesia. The effects caused by the preparation have been studied on the model of an acute attack of stenocardia (Sekeresh's model). The functional state of the ischemic focus has been assessed through analysis of epicardial heart electrograms in the ischemic zone and adjacent regions. The stenocardiac attack is caused by way of a partial occlusion of the coronary artery (left descending artery) and including a high rhythm of heart contractions (up to 250 beats/minute) by way of electrical stimulation of the heart auricula. Under these conditions there take place changes of the heart electrograms typical for acute ischemia of myocardium.

[6] = 50 mg/kg intravenously, cats and dogs
[7] = intraperitoneal 200 mg/kg for 6 months and 1,000 mg/kg for 1 month
[8] = 5 minutes after 250 mg/kg intravenously
[9] = 10 minutes after 250 mg/kg intravenously
[10] = 20 minutes after 250 mg/kg intravenously
[11] = 40 minutes after 250 mg/kg intravenously

## CN1C(=O)N(C)C2C1N(C)C(=O)N2C (centres unmarked) [the preparation, 2,4,6,8-tetramethyl-2,4,6,8-tetraazobicyclo-/3,3,0/-octanedione-3,7]
Blood flow in aorta
  duration of increased blood flow in aorta: 30 to 40 min
  increase of blood flow in aorta: 50-70%
  tachycardia: uncertainly pronounced tachycardia
[1]; [6]
  arterial pressure reaction during the first 5 minutes: uncertain hypertensive reaction
  effect on the systemic arterial pressure: no essential effect on the systemic arterial pressure
[1]; 250 mg/kg, cats and dogs
  changes of the arterial pressure: opposite-sign changes of the arterial pressure mainly of hypotensive character
[1]; 250 mg/kg, first 10 minutes after administration, cats and dogs
  average value of the maximum drop of pressure: 8-10 % of the initial level
[1]; 500 mg/kg, cats and dogs
  duration of the hypotensive effect: 20 to 30 min
  hypotensive reaction intensity: 15-18 % of the initial level
[1]; dog, in vivo
  influence on the adrenoreactive structures of the vessels: does not influence the adrenoreactive structures of the vessels
[1]; isoproterenol 2.5 μg/kg
  depressor reactions on isoproterenol: does not change the character
[1]; noradrenaline 3 μg/kg
  pressor reactions of arterial pressure on noradrenaline: does not change the character
[2]; heart, kidney and limbs
  tension of vessels: monodirectionally lowers tension of all vessels
[2]; in vivo
  resistance of coronary vessels versus peripheral vessels: lowered to a greater extent than that of peripheral vessels
Coronary blood flow
  arterio-venous difference relative to oxygen: lowering the arterio-venous difference relative to oxygen; also recorded: decrease in the arterio-venous difference relative to oxygen
  content of oxyhemoglobin in coronary venous blood: increased content of oxyhemoglobin in coronary venous blood
  increase of coronary blood flow versus absorption of oxygen by myocardium: surpasses the absorption of oxygen by myocardium
Coronary blood flow; 50 mg/kg intravenously, average
  increase of coronary blood flow: 32±5%
Coronary blood flow; 500 mg/kg
  duration of coronary blood flow effect: 30 to 40 min
  increase of coronary blood flow: 108±12%
Coronary blood flow; calculated from arterio-venous difference
  increase of the amount of the heart-absorbed oxygen: 29±2.3%
Acute toxicity on rats
  LD50: 3450 mg/kg
Solubility in water
  solubility in water: well soluble in water
rats; [7]
  accumulation: not accumulated
  effect on hematoplasty and urination: does not affect hematoplasty and urination
rats; kidney, liver, spleen, heart and the like, intraperitoneal 200 mg/kg 6 months, 1,000 mg/kg 1 month
  histological changes in the visceral organs: no pathological changes in the visceral organs
[3]; 50 mg/kg
  pressor responses caused by tetanic irritation of tibial nerve: remain unchanged
  tonic and reflectorial activity in sympathetic nerves: does not noticeably change the character and intensity of tonic and reflectorial activity in sympathetic nerves
[3]; 50 mg/kg, in a certain number of the experiments
  spontaneous activity and reflectorial responses: slight amplification of spontaneous activity and facilitation of reflectorial responses
[3]; 250-500 mg/kg
  C-responses of the reflectorial discharges: suppressed
  inhibiting component of the reflectorial response: amplification of the inhibiting component of the reflectorial response
  tonic activity in sympathetic nerves: weakly inhibited
[4]; 250 mg/kg intravenously
  heart function: capable of increase the heart function
[4]; [8]
  Time of systolic ejaculation: 0.12 ± 0.01 s
  Time of diastolic relaxation: 0.22 ± 0.01 s
  Minute work: 1.12 ± 0.15 kgm
  Systolic (beat) volume: 2.22 ± 0.15 mL
  Maximum blood flow: 30 ± 8.2
  Maximum linear speed: 41 ± 2.7 cm/s
  Average arterial pressure: 137 ± 6.9 mm Hg
  Pulse frequency: 190 ± 6 b/min
  Minute volume: 464 ± 38 mL/min
[4]; [9]
  Time of systolic ejaculation: 0.11 ± 0.09 s
  Time of diastolic relaxation: 0.21 ± 0.01 s
  Minute work: 1.23 ± 0.11 kgm
  Systolic (beat) volume: 2.34 ± 0.18 mL
  Maximum blood flow: 34 ± 2.6
  Maximum linear speed: 49 ± 2.8 cm/s
  Average arterial pressure: 126 ± 8.1 mm Hg
  Pulse frequency: 197 ± 5 b/min
  Minute volume: 488 ± 43 mL/min
[4]; [10]
  Time of systolic ejaculation: 0.13 ± 0.01 s
  Time of diastolic relaxation: 0.20 ± 0.01 s
  Minute work: 0.97 ± 0.08 kgm
  Systolic (beat) volume: 2.01 ± 0.15 mL
  Maximum blood flow: 28 ± 1.4
  Maximum linear speed: 38 ± 2.3 cm/s
  Average arterial pressure: 139 ± 7.4 mm Hg
  Pulse frequency: 191 ± 7 b/min
  Minute volume: 415 ± 32 mL/min
[4]; [11]
  Time of systolic ejaculation: 0.13 ± 0.008 s
  Time of diastolic relaxation: 0.23 ± 0.009 s
  Minute work: 0.83 ± 0.10 kgm
  Systolic (beat) volume: 1.97 ± 0.12 mL
  Maximum blood flow: 21.4 ± 2.2
  Maximum linear speed: 33. ± 3.1 cm/sec
  Average arterial pressure: 146 ± 8.8 mm Hg
  Pulse frequency: 183 ± 7 b/min
  Minute volume: 397 ± 33 mL/min
mice
  LD50: 3,800 mg/kg of the body weight
Acute toxicity on mice
  LD50: 3800 mg/kg
cardio-vascular effects
  arterial pressure: no substantial change of arterial pressure
  colateral blood flow in deep (endocardial) layers of myocardium: contributes to the development of the colateral blood flow in deep (endocardial) layers of myocardium
  contractibility of myocardium (inotropic effect): positive inotropic effect; also recorded: increases contractibility of myocardium
  frequency of heart contractions: without affecting the frequency of heart contractions
  functional state of the ischemic centre: capable of improving functional state of the ischemic centre; also recorded: capable of improve the functional state of the ischemic centre
  lactate in the blood outflowing from the ischemic zone: lowering the content of lactate in the blood outflowing from the ischemic zone
  sympathetic tonus of heart and vessels: capable of inhibiting the sympathetic tonus of heart and vessels
  vascular component of pain reactions: capable of inhibiting the sympathetic tonus of heart and vessels, as well as vascular components of pain reactions; also recorded: suppresses the vascular component of pain reactions
  volumetric rate of total coronary blood flow: increases the volumetric rate of total coronary blood flow
[5]; 200 mg/kg, dogs
  ischemic changes of epicardial electrograms in the zone of ischemia: inhibited the development of ischemic changes of epicardial electrograms in the zone of ischemia
[5]; dogs
  blood inflow into the ischemic zone (retrograde blood flow): considerably increase the blood inflow into the ischemic zone
[5]; experimental model of acute myocardium ischemia
  activity compared with nonachlazine (sum of pharmacological effects): more active (as regards the sum of pharmacological effects) than the known preparation nonachlazine
